Marks after values point to notes of the source that are not given here.
What was measured:
[1] = test system: CXCR4^+ SW1417 CRC metastases; assay: Regression of established metastasis protocol, orthotopic CXCR4+ SW1417 CRC model; format: in vivo, Swiss nude mice; details: for LN foci, mean foci number per mouse / Lung foci, mean foci number per mouse: Regression protocol, 6 histology sections, mean + SE; for LN foci, mean foci number per mouse: 20 μg (or equimolecular) q3d x10 i.v.
Experimental: Swiss nude mice were anesthetized with ketamine and xylazine, exteriorizing their cecum by a laparotomy. 2×106 CXCR4^+ SW1417-luci CRC cells (expressing luciferase, to allow ex vivo bioluminescent identification of metastatic foci in affected organs at the end of therapy) were suspended in […] of modified Eagle's medium, and loaded into a sterile micropipette. The cell suspension was slowly injected, under a binocular lens, with an approximate 30° angle and its tip introduced 5 mm into the cecal wall. Afterward, a slight pressure was applied with a cotton stick at approximately 2 mm from the injection point in the direction of the pipette axis. The pipette was pulled out and the area around the injection cleaned with 3% iodine. After injection, the gut was returned to the abdominal cavity and closed with surgical staples.
The orthotopic and metastatic CRC model developed in Swiss nude mice was employed to perform experiments of metastasis regression. […] The experiment was finished when the first animal of the buffer-treated-group had to be euthanized. See below the studied parameters to evaluate the antimetastatic effect.
(§1) At necropsy, the number and size of visible metastases in the organs where dissemination is expected in colorectal cancer (lymph nodes, liver, lung and peritoneum) were recorded for each mouse in all compared groups. Also the number of metastatic foci that emitted bioluminiscence (derived from the SW1417-luci CRC cells) were counted ex vivo in the target organs for metastasis, using the IVIS® 200-Spectrum (Perkin-Elmer). Samples for histopathological and immunohistochemical analyses were collected and processed. Two independent observers analyzed H&E stained samples to count the number and measure the size of all observed metastatic foci in three (metastasis prevention experiment) or six (regression of metastasis experiment) sections of each organ in each mouse. The images were taken and the measurements were performed with an Olympus microscope with the CellD Olympus software (v3.3). […] The obtained results were used to study a possible correlation between CXCR4^+ CCF and antimetastatic effect at the different sites.
(§2) In order to analyze differences between control and experimental groups of affected mice in metastatic rates at the different organs, Fisher's exact test was used. The Mann-Whitney test was used to compare number and size of metastatic foci in the affected organs among groups. All quantitative values were expressed as mean±SE and the statistical tests were performed using SPSS version 11.0 (IBM, New York, USA). Differences among groups was considered significant at a p<0.05.

[2] = test system: subcutaneous CXCR4^+ SW1417 CRC tumor; assay: Induction of DNA double strand breaks and apoptosis in tumor tissue, SC SW1417 model; format: in vivo, mouse; details: for number of apoptotic figures in tumor tissue (Hoechst nuclear condensation or defragmentation): 24 h after injection; for number of DSBs foci in tumors (anti-gH2AX IHC): five hours after treatment
Experimental: (§3) The SC SW1417 mouse model was used to determine the capacity of the nanoconjugate to induce DNA damage and apoptosis in tumor tissue, as well as the kinetics of CXCR4 expression in the membrane of tumor cells after treatment, regarding the fraction of CXCR4 expressing tumor cells and their intensity, since CXCR4^+ are the target cells for the nanoconjugate. […] The mice had been treated with equimolecular dosages of T22-GFP-H6, free oligo-FdU or Buffer, in which also were determined the levels of CXCR4 expression in tumor tissue at the different time points.

[3] = test system: CXCR4^+ SW1417 CRC metastases; assay: Prevention of metastasis protocol, SC+ORT CXCR4+ SW1417 CRC model; format: in vivo, NOD/SCID mice
Experimental: Thus, a SC+ORT model, was produced: when SC tumors reached a volume of 700 mm3, mice were sacrificed by cervical dislocation and tumours were excised, discarding the necrotic areas. Three hundred mg of viable tumour tissue was then cut into pieces and disaggregated in a mix of 0.05% trypsin (Invitrogen) and 100 mg/ml DNase (Sigma-Aldrich). The mix was pipetted 30 times, using a 10 ml pipette, and incubated for 10 minutes at 37° C. with shaking. It was then re-pipetted 30 times, using 10 ml, 3 ml and 1 ml pipettes, and re-incubated for 5 minutes at 37° C. with shaking. This re-pipetting step was then repeated. The obtained SW1417 single-cell suspension was filtered through a cell strainer and centrifuged at 1,000 g for 10 minutes before counting the cells. Then 2×10^6 cells, […] resuspended in 50 μl of media, were microinjected in the cecum of each mouse, following the method described above.
The SC+ORT metastatic CRC model developed in NOD/SCID mice was used to evaluate the capacity of the nanoconjugate for metastasis prevention.
as §1, §2

[4] = test system: CXCR4^+ cancer cells in SC SW1417 CRC tumor; assay: CXCR4+ cancer cell fraction in tumor tissue along time after single dose (anti-CXCR4 IHC); format: in vivo, mouse; details: 24 h, 48 h, 72 h after equimolecular dose
Experimental: as §3

[5] = test system: CXCR4^+ HeLa human cervical carcinoma cell line; assay: Internalization in CXCR4+ HeLa cells (flow cytometry, AMD3100 competition); format: cell-based; details: pre-treatment, 1:10 molar ratio
Experimental: To assess specificity for CXCR4 receptor mediated internalization, competition studies incubating CXCR4^+ HeLa cells with the CXCR4 antagonist AMD3100 (octahydrochloride hydrate, Sigma-Aldrich) were performed in a 1:10 (Protein:antagonist) molar ratio for 1 h before exposure to the nanoconjugate, as previously described for the T22-GFP-H6.
Nuclei were labeled with Hoechst 33342 (Life Technologies) and plasma membranes CellMask™ Deep Red (Life Technologies).

[6] = test system: CXCR4^+ SW1417 CRC cells; assay: Internalization in CXCR4+ SW1417 CRC cells (flow cytometry, AMD3100 competition); format: cell-based, human; details: antagonist 1:10 protein:antagonist molar ratio, 1 h before nanoconjugate
Experimental: CXCR4+ SW1417-luc CRC cells were cultured in modified Eagle's medium (Gibco, Rockville, MD) supplemented with 10% fetal calf serum (Gibco), and incubated at 37° C. and 5% CO2 in a humidified atmosphere. […] Fluorescence emission was measured with a D detector (530/30 nm band pass filter). To assess specificity for CXCR4 receptor-mediated internalization, competition studies were performed incubating CRC SW1417 cells with the CXCR4 antagonist AMD3100 (Sigma Aldrich) in a 1:10 (protein:antagonist) molar ratio for 1 h before exposure to the nanoconjugate at […] for an additional hour.
The cells were washed in phosphate-buffered saline (Sigma-Aldrich). Live cells were recorded by TCS-SP5 confocal laser scanning microscopy (Leica Microsystems, Heidelberg, Germany) using a Plan Apo 63×/1.4 (oil HC×PL APO lambda blue) objective as described. To determine particle localization inside the cell, stacks of 10-20 sections forevery 0.5 μm of cell thickness were collected and three-dimensional models were generated using Imaris version 6.1.0 software (Bitplane, Zurich, Switzerland).

[7] = test system: subcutaneous CXCR4^+ SW1417 CRC tumor; assay: Tumor uptake and tumor cell internalization in subcutaneous CXCR4+ SW1417 CRC model; details: fluorescence emission
Experimental: (§4) SC model was used to assess tumor uptake and nanoconjugate internalization and in vivo competition studies using co-administration of the CXCR4 antagonist AMD3100.
(§5) Two hours, 5 h and 24 h after the administration, the mouse was euthanized to resect the tumor and register ex vivo the intensity of the green fluorescence emitted by the nanoconjugated that biodistributed to tumor tissue using the IVIS® 200-Spectrum (Perkin Elmer, MA, USA). Following, tumor tissue samples were taken, processed and performed immunohistochemistry (IHC) to determine the presence or absence of the corresponding nanoconjugate into cytosol of tumor cells using an anti-GFP antibody (1:300; Santa-Cruz Biotechnology, CA, USA). […] Apoptosis was assessed determining nuclear condensation with Hoechst staining of tumor tissue sections and counting the number of condensed or defragmented nuclei in five high-power magnification fields in different sections for each tumor using the Olympus DP73 digital camera and the CellD Imaging 3.3 programme (Olympus, Tokyo, Japan).

[8] = test system: subcutaneous CXCR4^+ SW1417 CRC tumor; details: mouse, in vivo, iv
Experimental: as §4, §5

[9] = Nanoparticle size by dynamic light scattering; format: physicochemical; details: Example 2; unit not given
Experimental: The volume and size distribution of the nanoparticles was determined by dynamic light scattering at 633 nm (Zetasizer Nano ZS, Malvern Instruments Limited, Malvern, Worcestershire, UK). Nanoconjugate size was also measured using purified samples, diluted to 0.2 mg/mL and contrasted by evaporation of 1 nm platinum layer in carbon-coated grids, before being visualized in a Hitachi H-7000 transmission electron microscope (TEM), as described33.

[10] = Prevention protocol, 3 histology sections, mean + SE

5′-(FdU)5-3′ [free oligo-FdU, reference compound]
LN foci, mean foci number per mouse [1]: 0.8 ± 0.2 | Lung foci, mean foci number per mouse [1]: 2.0 ± 0.7 ^j,m | primary tumor growth by in vivo bioluminescence emission ([1]; regression experiment, compared to buffer treated animals): significantly inhibited tumor growth | number of apoptotic figures in tumor tissue (Hoechst nuclear condensation or defragmentation) [2]: 7.1±0.6 | number of DSBs foci in tumors (anti-gH2AX IHC) [2]: 13.4±0.7 | LN foci, mean foci number per mouse ([3]; Prevention protocol, 20 μg (or equimolecular) q3d x12 i.v., 3 histology sections, mean + SE): 3.1 ± 0.4 | Liver foci, mean foci number per mouse [3, 10]: 1.0 ± 0.3 ^c | Lung foci, mean foci number per mouse [3, 10]: 4.5 ± 1.6 ^e | Peritoneal foci, mean foci number per mouse [3, 10]: 2.8 ± 1.0 ^g | total or mean foci number at any site (LN, liver, lung, peritoneum) ([3]; compared to buffer-treated animals): did not reduce | Metastasis Liver [%] ([3]; end of prevention experiment): [55]^a % | Metastasis Liver, affected/total mice ([3]; end of prevention experiment): 6/11 | Metastasis Lung [%] ([3]; end of prevention experiment): [55]^c % | Metastasis Lung, affected/total mice ([3]; end of prevention experiment): 6/11 | Metastasis Lymph nodes [%] ([3]; end of prevention experiment): [100] % | Metastasis Lymph nodes, affected/total mice ([3]; end of prevention experiment): 11/11 | Metastasis Peritoneal [%] ([3]; end of prevention experiment): [45] % | Metastasis Peritoneal, affected/total mice ([3]; end of prevention experiment): 5/11 | remaining CXCR4^+ CCF in liver, lung and peritoneal metastatic tissue (anti-CXCR4 IHC) ([3]; end of prevention experiment): does not reduce | Metastasis Size, Liver ([3]; mean foci size): 9.6 μm^2 × 10^−3 | Metastasis Size, Lung ([3]; mean foci size): 17.9 μm^2 × 10^−3 | Metastasis Size, Lymph nodes ([3]; mean foci size): 77.0 μm^2 × 10^−3 | Metastasis Size, Peritoneal ([3]; mean foci size): 304.8 μm^2 × 10^−3 | Primary tumor Positive/#Mice ([3]; mice bearing a primary tumor out of total mice per group): 11/11 | Primary tumor [%] ([3]; percent of mice bearing a primary tumor): [100] % | primary tumor growth by in vivo bioluminescence emission ([3]; prevention experiment, compared to buffer-treated mice): no significant inhibition | CXCR4+ CCF in tumor tissue along time [4]: remained similar to its basal level along time

c1cc(CN2CCCNCCNCCCNCC2)ccc1CN1CCCNCCNCCCNCC1 [AMD3100, reference compound]
block of T22-GFP-H6-FdU internalization in HeLa cells by CXCR4 antagonist pre-treatment [5]: Complete internalization block | block of T22-GFP-H6-FdU internalization by CXCR4 antagonist [6]: completely blocked | block of T22-GFP-H6-FdU tumor uptake by CXCR4 antagonist given prior to the nanoconjugate [7]: completely blocked

T22-GFP-H6: targeting vector: fusion protein nanoparticle of peptide T22 (CXCR4 ligand), green fluorescent protein and a Histidine tail
LN foci, mean foci number per mouse [1]: 1.1 ± 0.2 ^i | Lung foci, mean foci number per mouse [1]: 1.7 ± 0.6 ^l | internalization into CXCR4^+ tumor cell cytosol by anti-GFP immunohistochemistry [8]: internalized | number of apoptotic figures in tumor tissue (Hoechst nuclear condensation or defragmentation) [2]: 3.0±0.3 | number of DSBs foci in tumors (anti-gH2AX IHC) [2]: undetectable | size determined by dynamic light scattering [9]: 13.4+0.11

Reference: patent US12202866B2, “Therapeutic nanoconjugates and uses thereof” (UNIVERSITAT AUTÒNOMA DE BARCELONA (UAB), priority 2017, dated 2025)
